# According to paper PMC8809408 (Frontiers in Pharmacology, 2022):
# System: pseudotyped viruses harboring glycoprotein of vesicular stomatitis virus (VSV)
# Type: cell-based
row,Structure (SMILES),luciferase activity (infection by VSV-G pseudotyped viruses)
1,CN(C)CCCC1(c2ccc(F)cc2)OCc2cc(C#N)ccc21 (stereo not shown) [Citalopram],remained ineffective
2,CN(C)CCCN1c2ccccc2CCc2ccc(Cl)cc21 [Clomipramine],reduced the infection
3,CNCCC(Oc1ccc(C(F)(F)F)cc1)c1ccccc1 (stereo not shown) [Fluoxetine],reduced the infection
4,OCCN1CCN(CCC=C2c3ccccc3Sc3ccc(C(F)(F)F)cc32)CC1 [Flupenthixol],reduced the infection
5,COCCCC/C(=N\OCCN)c1ccc(C(F)(F)F)cc1 [Fluvoxamine],remained ineffective
6,Fc1ccc([C@@H]2CCNC[C@H]2COc2ccc3c(c2)OCO3)cc1 [Paroxetine],remained ineffective
7,CCOc1ccccc1OC(c1ccccc1)C1CNCCO1 (stereo not shown) [Reboxetine],reduced the infection
